Results published in paper PMC7785802, “Therapeutic Efficacy of a Trichinella Spiralis Paramyosin-Derived Peptide Modified With a Membrane-Targeting Signal in Mice With Antigen-Induced Arthritis” (Frontiers in Microbiology, 2020).
“Also recorded” adds a separate entry of the source.

What was measured:
[1] = system: human C9; assay: Zn2+-induced human C9 polymerization assay; format: biochemical; details: for inhibition of Zn2+-induced C9 polymerization at 5.24 μmol: peptide 5.24 μmol
Method: Certain concentrations of C9 can polymerize when induced by certain concentrations of Zn^2+. However, the polymerization can be suppressed when C9 binds to inhibitors. C9 polymerization assays were used to evaluate the inhibitory effect of the peptides on Zn^2+-induced polymerization of human C9. Briefly, 2 μg C9 was preincubated with the peptides in 20 mM Tris buffer (pH 7.2) at 37°C for 40 min and then 50 μM Zn^2+ was added to induce C9 polymerization at 37°C for 2 h. The samples were subjected to 2.5–15% polyacrylamide gel electrophoresis to assess the inhibitory effects of the peptides on human C9 polymerization; the gels were visualized by staining with Coomassie blue.
(§1) Figure 1 Modified peptide bound to human complement C9 and inhibited C9 polymerization-induced bio-function. (A) Microscale thermophoresis assay (NanoTemper) in which biomolecular interactions were quantitated by examining the motion of the molecules along a microscopic temperature gradient induced by an infrared laser. Changes in the molecular hydration shell, charge, or size are measured using a fluorescent probe (NT-647) bound covalently to the human C9. Binding of control, modified and original peptides to human C9 were studied. Data points indicate the differences in normalized fluorescence (%) generated by peptides binding to […], and curves indicate the calculated fits. […] Error bars represent the standard error of three independent measurements. […] Lane M: standard protein markers; lane 1: blank control (C9 without Zn^2+); lane 2: positive control (C9 with Zn^2+); lane 3: 5.24 μmol original peptide; lanes 4–6, 1.31, 2.62, and 5.24 μmol modified peptide, respectively; lane 7, 5.24 μmol control peptide. (C) Normal human serum (NHS)-induced complement-mediated hemolysis was inhibited by the modified and original peptides (2.62 and 5.24 μmol) compared to the control peptide. All experiments were performed three times and data are presented as mean ± SD. *p < 0.05, **p < 0.01.

[2] = system: complement in normal human serum (NHS); rabbit erythrocytes; assay: NHS-induced complement-mediated hemolysis of rabbit erythrocytes (alternative pathway); format: cell-based; details: for inhibition of NHS-induced erythrocyte lysis, concentration dependence: NHS 1:12.5, peptide 1.31, 2.62, 5.24 μmol, Mg-EGTA, 37°C 40 min, then rabbit erythrocytes 1 × 10^8, 30 min 37°C, absorbance 412 nm; for inhibition of NHS-induced erythrocyte lysis, concentration dependence / inhibition of NHS-induced hemolysis compared to control peptide: three experiments; for inhibition of NHS-induced erythrocyte lysis at 5.24 μmol: peptide 5.24 μmol, NHS 1:12.5; for inhibition of NHS-induced hemolysis compared to control peptide: peptide 2.62 and 5.24 μmol, *p < 0.05, **p < 0.01
Method: Normal human serum (NHS) was collected from six healthy volunteers, and the donation procedure was approved by the Institutional Review Board (IRB) of Capital Medical University (approval number: 2016SY01). After venous blood was collected, it was clotted in serum separator tubes for 4 h at room temperature and then centrifuged at 1,000 g for 30 min to obtain the serum. The serum was divided into aliquots and stored at −80°C. To obtain normal mouse serum (NMS), blood was collected in the […] of mice under ether anesthesia and the serum was separated and stored as described above.
When rabbit erythrocytes are placed in xenogeneic serum (such as NHS or NMS), the alternative pathway of the complement system is activated, causing lysis of the rabbit erythrocytes. To evaluate the effects of the peptides on the complement activation-mediated erythrocyte lysis (involving the alternative complement pathway), NHS or NMS (1:12.5) was incubated with various concentrations of peptides (1.31, 2.62, and 5.24 μmol) in Mg-EGTA solution (5 mM MgCl2, 10 mM EGTA) at 37°C for 40 min before adding the mixture to freshly washed erythrocytes (1 × 10^8) in gelatin veronal-buffered saline (pH 7.4, containing 0.1% gelatin) for 30 min at 37°C. Lysis was stopped with cold Hanks' Balanced Salt Solution (HBSS^++) containing 10 mM ethylenediaminetetraacetic acid (EDTA). The samples were then centrifuged at 1,000 g for 10 min to obtain the supernatant, and the amount of released hemoglobin in the supernatant was determined by measuring the absorbance at 412 nm. The hemolytic activity relative to the water-induced lysis among the same number of erythrocytes was calculated.
as §1

[3] = system: human complement C9; assay: Microscale thermophoresis (MST) binding to human C9; details: for binding to human C9: NT-647-labeled human C9 1.5 μM, peptides diluted from 1.68 to 0 mM, distilled water with 0.05% Tween 20, 10 min room temperature, three independent measurements
Method: To assess the binding affinity of the peptides to human or mouse complement C9, a fluorescence-based biophysical technique known as MST (NanoTemper Technologies GmbH, Germany) was used. Briefly, human or mouse C9 was fluorescently labeled using a Monolith NT™ Protein Labeling Kit NT-647 (NanoTemper Technologies GmbH, Germany) based on the manufacturer's protocol. Next, the peptides were gradiently diluted in distilled water from 1.68 to 0 mM. The labeled human or mouse C9 (1.5 μM) was then incubated with various peptide concentrations for 10 min at room temperature before being loaded into K002 silica capillaries. Measurements were performed using a NanoTemper Monolith NT.115 instrument in distilled water containing 0.05% Tween 20. The data were analyzed using NanoTemper Analysis software (NanoTemper Technologies GmbH, Germany).
as §1

[4] = 2 μg C9, 50 μM Zn2+, 37°C 2 h, PAGE, Coomassie blue

Row | Substance | inhibition of Zn2+-induced C9 polymerization at 5.24 μmol [1, 4] | inhibition of NHS-induced erythrocyte lysis, concentration dependence [2] | binding to human C9 [3] | inhibition of Zn2+-induced C9 polymerization, concentration dependence ([1]; 2 μg C9, 20 mM Tris pH 7.2, 37°C 40 min preincubation, 50 μM Zn2+ 2 h, peptide 1.31, 2.62, 5.24 μmol, 2.5–15% PAGE) | inhibition of Zn2+-induced C9 polymerization at 2.62 μmol ([1]; peptide 2.62 μmol, 2 μg C9, 50 μM Zn2+, 37°C 2 h, PAGE, Coomassie blue) | inhibition of NHS-induced erythrocyte lysis at 5.24 μmol [2] | inhibition of NHS-induced hemolysis compared to control peptide [2] | binding affinity to human C9 compared with original peptide ([3]; labeled human C9 1.5 μM, peptides 1.68 to 0 mM, Kd not given)
1 | GKMSVMSVYKSVLS [control peptide, reference compound] | did not inhibit C9 polymerization | no difference in the erythrocyte lysis among the three concentrations | no binding between human C9 and the control peptide |  |  |  |  | 
2 | Myr-GSSKSPSKKKKKKPG-ACP-VSMGKSLSSKVYVM [modified peptide, Ts-pmy-derived peptide modified with a membrane-targeting signal] | fully inhibited; also recorded: completely | significantly inhibited in a dose-dependent manner | human C9 could bind to both the original and modified peptides; also recorded: concentration-dependent binding | inhibited Zn^2+-induced C9 polymerization in a dose-dependent manner | slightly | greatest inhibition | inhibited | binding affinity that was similar to that of the original peptide
3 | VSMGKSLSSKVYVM [original peptide, tetradecapeptide derived from Trichinella spiralis paramyosin (Ts-pmy)] | fully inhibited | significantly inhibited in a dose-dependent manner | human C9 could bind to both the original and modified peptides; also recorded: concentration-dependent binding |  |  | greatest inhibition | inhibited | 
